Experimental findings from patent US6251950A, “Aliphatic propargylamines as cellular rescue agents” (University of Saskatchewan, priority 1998, dated 2001) are described below.

For assay [1], the target named is T1, rat liver mitochondrial monoamine oxidase B (Rattus norvegicus, UniProt P19643).
T1 sequence (P19643 1-520): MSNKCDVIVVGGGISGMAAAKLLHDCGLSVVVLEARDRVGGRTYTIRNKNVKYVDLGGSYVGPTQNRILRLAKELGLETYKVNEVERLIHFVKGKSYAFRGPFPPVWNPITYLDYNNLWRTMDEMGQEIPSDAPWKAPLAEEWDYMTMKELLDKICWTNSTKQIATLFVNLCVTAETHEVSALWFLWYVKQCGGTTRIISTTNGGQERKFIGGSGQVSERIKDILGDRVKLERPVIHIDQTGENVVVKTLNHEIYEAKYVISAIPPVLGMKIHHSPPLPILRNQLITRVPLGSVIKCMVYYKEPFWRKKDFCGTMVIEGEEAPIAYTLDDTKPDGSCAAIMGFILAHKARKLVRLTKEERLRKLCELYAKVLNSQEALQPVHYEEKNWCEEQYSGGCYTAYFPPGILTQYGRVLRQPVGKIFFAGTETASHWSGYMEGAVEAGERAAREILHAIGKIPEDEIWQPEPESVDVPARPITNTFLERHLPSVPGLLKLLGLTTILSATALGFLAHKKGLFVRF
As to the kind of experiment: biochemical. The settings on record: for Comparison to most effective MAO-B inhibitor in group / MAO-B inhibitory activity: in vitro; for Comparison to most effective MAO-B inhibitor in group: relative to most effective inhibitor in group; for IC50: substrate PE (β-phenylethylamine) 1.9 × 10^-5 M, average of at least 2 independent triplicate experiments. It counts as biochemical. The method, then:
Enzyme activity was assessed using a radiometric method as previously described (Yu et al, 1992).

Assay [2] has as its system pyramidal neurons in the hippocampus (CA1 neurons). As to the kind of experiment: Hypoxia/ischaemia model, CA1 neuron survival. The assay is classed as in vivo, rat. As to conditions: for response vs control in vivo at 0.1 µmol/kg: Rattus norvegicus, Neuron, sc, read-out: Percentage survival of CA1 neurones, of vehicle treated controls (Table 4); for mean survival of CA1 neurons, percentage of vehicle treated controls (Table 2): **P < 0.01.
Text: This model produces selective, unilateral lesioning of the pyramidal neurons in the hippocampus which involves neuronal apoptosis.
Values are the mean survival of CA1 neurons expressed as a percentage of
vehicle treated controls (vehicle = 100%) ± sem (n = 6 - 10).

The subject of assay [3] is cerebellar granule cells (CGC). Kind of assay: in vitro. The assay is classed as cell-based, Wistar rat. As to conditions: for Percent Apoptotic Nuclei (Ara C + R-2HMP + compound): antagonism, Ara C 100 μM + R-2HMP 100 nM + S-enantiomer 10 μM, #P < 0.05 compared to Ara C + R-2HMP; for Percent Apoptotic Nuclei (Ara C + R-2HMP + compound) / Percent Apoptotic Nuclei (Control + compound) / Percent Apoptotic Nuclei (Ara C + compound): mean ± sem of 4 cultures; for Percent Apoptotic Nuclei (Control + compound): no Ara C, control 4.2 ± 0.3; for Percent Apoptotic Nuclei (Control + compound) / Percent Apoptotic Nuclei (Ara C + compound): R-2HMP 100 nM, S-2HMP 10 μM, S-2HPA 10 μM; for Percent Apoptotic Nuclei (Ara C + compound): with Ara C 100 μM, *P < 0.05 compared to Ara C alone; for blocking of Ara C induced apoptosis: 10^-7 M (FIG. 1c). The text has this: Cultures of cerebellar granule cells (CGC) can be induced into apoptosis by the addition of a high concentration of cytosine arabinoside (Ara C) (Dessi et al., 1995) and it has been shown that this is a p53 dependent apoptosis (Enokido et al, 1996). We have measured the antiapoptotic effect of N-(2-heptyl)propargylamine (2HPA) using this system and compared the results to those obtained with previously known aliphatic methyl propargylamines and deprenyl.
Cultures of CGC were obtained from 6-8 day old Wistar rat pups. Cultures were grown on glass in 35 mm petri dishes for 3 days and then used for experiments. 20 μl aliquots of drug solutions (Ara C, anti-apoptotic drugs, drug vehicles) were added to the medium of the cultures. 24 Hours later the cultures were fixed with FAM, and stained with bis-benzamide. Normal and apoptotic nuclei were counted to a total of 90-120 cells per culture. […] Concentrations in excess of 150 μM caused detachment of the cultures.
Compounds were added at the following concentrations: Ara C, 100 μM,

Setting [4] is: 0.1 μmol/kg, s.c., vehicle = 100%, ± sem (n = 6-10), *P < 0.05, **P < 0.01.
[5] abbreviates: 0.1 μmol/kg, s.c., vehicle = 100%, ± sem (n = 6-10).

Where a name gives a salt, the structure may show the parent alone. Read-outs that look alike come from different tables or passages of the source.

One may read the IC50 as the midpoint of a concentration-inhibition curve. Read a low IC50 as greater potency in that assay. As for `C#CCN(C)[C@@H](C)CCCC` [Example S-2HxMP, N-(2-hexyl)-N-methyl-propargylamine], in assay [1], the “Comparison to most effective MAO-B inhibitor in group” value turned out to be 4.3% and inhibition was half-maximal at 0.7 µM (IC50).

With `C#CCNC(C)CCCCC` (centres unmarked) [Example 2HPA, N-(2-heptyl)-propargylamine], the “MAO-B inhibitory activity” value in assay [1] is reported as “substantially reduced in comparison to those of the N-methyl compounds”.

With `C#CCN(C)CCC` [Example 1PrMP, N-(1-propyl)-N-methylpropargylamine], the response vs control in vivo at 0.1 µmol/kg in assay [2] (setting [4]) came to 127 ± 31%. The “activity in the hypoxia/ischaemia model” value in assay [2] (s.c.) was “inactive”.

In the case of `C#CCNC(C)CCCC` (centres unmarked) [Example 2HxPA, N-(2-hexyl)-propargylamines], the “MAO-B inhibitory activity” value in assay [1] is “substantially reduced in comparison to those of the N-methyl compounds”.

For `C#CCNCC` [EPA, N-ethylpropargylamine], the response vs control in vivo at 0.1 µmol/kg in assay [2] (setting [4]) came to 164 ± 18%.

Regarding `C#CCN[C@@H](C)CCCCC` [Example S-2HPA, (S)-N-(2-heptyl)-propargylamine], in assay [3], the “Percent Apoptotic Nuclei (Ara C + R-2HMP + compound)” value turned out to be 13.8 ± 1.2%, the “Percent Apoptotic Nuclei (Control + compound)” value was determined as 4.7 ± 0.7% and the “Percent Apoptotic Nuclei (Ara C + compound)” value was 14.2 ± 0.9%. Moreover, in assay [3] (in words), the “antagonism of the anti-apoptotic action of the R-enantiomers” value is “antagonists of the anti-apoptotic action of the R-enantiomers” and the anti-apoptotic effect entry is “does not have an anti-apoptotic effect”. Further, the “mean survival of CA1 neurons, percentage of vehicle treated controls (Table 2)” value in assay [2] (setting [5]) is listed as 131 ± 19%. The response vs control in vivo at 0.1 µmol/kg in assay [2] (setting [4]) turned out to be 131 ± 19%. In assay [1], the “Comparison to most effective MAO-B inhibitor in group” value was 0.1% and the IC50 was determined as 30 µM.

For the compound `C#CCN(C)[C@@H](C)CC` [Example S-2BuMP, (S)-N-(2-butyl)-N-methylpropargylamine], the response vs control in vivo at 0.1 µmol/kg in assay [2] worked out at 139 ± 38%.

For the compound `CCCCC[C@@H](C)N` [Example R-2HA, (R)-(2-heptyl)amine], in assay [2] (setting [5]), the “mean survival of CA1 neurons, percentage of vehicle treated controls (Table 2)” value amounted to 90 ± 30%. The “activity in the hypoxia/ischaemia model” value in assay [2] (s.c.) is recorded as “neither increase nor decrease the CA1 neuronal death”.

Turning to `C#CCN(C)[C@H](C)CCCC` [Example R-2HxMP, N-(2-hexyl)-N-methyl-propargylamine], in assay [1], the “Comparison to most effective MAO-B inhibitor in group” value was determined as 100% and the IC50 came out at 0.03 µM.

`C#CCNC(C)CC` (centres unmarked) [Example 2BuPA, N-(2-butyl)-propargylamine]: the “MAO-B inhibitory activity” value in assay [1] was “substantially reduced in comparison to those of the N-methyl compounds”.

With `C#CCN(C)C` [DMP, N,N-dimethylpropargylamine], in assay [2], the response vs control in vivo at 0.1 µmol/kg is 117 ± 28%.

For `C#CCN(C)[C@H](C)CC` [Example R-2BuMP, (R)-N-(2-butyl)-N-methylpropargylamine], the response vs control in vivo at 0.1 µmol/kg in assay [2] was determined as 297 ± 52%.

Turning to `CCCCC[C@@H](C)NC` [Example R-2HMA, (R)-N-(2-heptyl)-methylamine], in assay [2] (setting [5]), the “mean survival of CA1 neurons, percentage of vehicle treated controls (Table 2)” value was 85 ± 26%. Also, in assay [2] (s.c.), the “activity in the hypoxia/ischaemia model” value is given as “neither increase nor decrease the CA1 neuronal death”.

Take `C#CCN(C)[C@@H](C)CCCCC` [Example S-2HMP, (S)-N-(2-heptyl)-N-methyl-propargylamine]: in assay [3], the “blocking of Ara C induced apoptosis” value is reported as “did not”, the “Percent Apoptotic Nuclei (Ara C + R-2HMP + compound)” value is listed as 15.1 ± 0.9%, the “Percent Apoptotic Nuclei (Control + compound)” value was 5.0 ± 0.6% and the “Percent Apoptotic Nuclei (Ara C + compound)” value is given as 13.7 ± 1.1%. The “antagonism of the anti-apoptotic action of the R-enantiomers” value in assay [3] (in words) is given as “antagonists of the anti-apoptotic action of the R-enantiomers”. Further, the “mean survival of CA1 neurons, percentage of vehicle treated controls (Table 2)” value in assay [2] (setting [5]) is 112 ± 23%. Also, the response vs control in vivo at 0.1 µmol/kg in assay [2] (setting [4]) was determined as 112 ± 23%. In assay [1], the “Comparison to most effective MAO-B inhibitor in group” value was found to be 0.8% and the IC50 was 4 µM.

With `C#CCNCCCCCC` [Example 1HxPA, N-1-Hexylpropargylamine hydrochloride], the response vs control in vivo at 0.1 µmol/kg in assay [2] (setting [4]) came out at 179 ± 23%.

Take `C#CCN(C)[C@@H](C)Cc1ccccc1` [S-deprenyl]: in assay [3], the “blocking of Ara C induced apoptosis” value is “did not”.

Take `C#CCN[C@@H](C)CC` [Example S-2BuPA, (S)-N-(2-butyl)-propargylamine]: in assay [1], the “Comparison to most effective MAO-B inhibitor in group” value was determined as 0.2% and half-maximal inhibition (IC50) required 500 µM.

As to `C#CCN[C@H](C)CCCC.Cl` [Example R-2HxPA, (R)-N-2-Hexylpropargylamine hydrochloride], in assay [1], the “Comparison to most effective MAO-B inhibitor in group” value amounted to 0.8% and the IC50 stood at 4 µM.

Regarding `C#CCNCCC.Cl` [Example 1PrPA, N-1-Propylpropargylamine hydrochloride], the response vs control in vivo at 0.1 µmol/kg in assay [2] (setting [4]) came out at 174 ± 29%. Further, the “activity in the hypoxia/ischaemia model” value in assay [2] (s.c.) was “active”.

On to `C#CCN(C)CCCCCC` [Example 1HxMP, N-(1-hexyl)-N-methylpropargylamine], for which the response vs control in vivo at 0.1 µmol/kg in assay [2] (setting [4]) turned out to be 215 ± 24%.

Turning to `C#CCN[C@H](C)CC.Cl` [Example R-2BuPA, (R)-N-2-Butylpropargylamine hydrochloride], the response vs control in vivo at 0.1 µmol/kg in assay [2] (setting [4]) came out at 263 ± 37%. Also, in assay [1], the “Comparison to most effective MAO-B inhibitor in group” value came to 1.4% and the IC50 worked out at 70 µM.

In the case of `C#CCNC(C)C.Cl` [Example 2PrPA, N-2-Propylpropargylamine hydrochloride], the response vs control in vivo at 0.1 µmol/kg in assay [2] (setting [4]) is 175 ± 20%. Besides, in assay [2] (s.c.), the “activity in the hypoxia/ischaemia model” value was “slightly lower than those of the optimum branched chain compounds”.

With `C#CCN(C)CC` [EMP, N-ethyl-N-methylpropargylamine], in assay [2] (setting [4]), the response vs control in vivo at 0.1 µmol/kg was determined as 82 ± 19%.

With `C#CCNC` [MPA, N-methylpropargylamine], the response vs control in vivo at 0.1 µmol/kg in assay [2] worked out at 78 ± 31%.

Turning to `C#CCN(C)C(C)C` [Example 2PrMP, N-(2-propyl)-N-methylpropargylamine], the response vs control in vivo at 0.1 µmol/kg in assay [2] (setting [4]) is 255 ± 43%. For the same compound, in assay [2] (s.c.), the “activity in the hypoxia/ischaemia model” value was “slightly lower than those of the optimum branched chain compounds”.
